These results are taken from patent US12269808B2, “Amino dithioperacid thioester compound, preparation method therefor, and use thereof” (FUDAN UNIVERSITY, priority 2019, dated 2025).

In the test the test system is BALB/c mice bearing C26 tumors. Briefly: C26 tumor cancer cachexia animal model. The class given is in vivo, mouse. Conditions: 5 mg/kg oral gavage (i.g). Here is the method:
The experimental results of cancer cachexia animal models treated with compound 4, by the following methods.
C26 cells were cultured in T75 culture flasks in the culture medium (RPMI-1640 medium containing 10% FBS, and P/S) and placed in a 5% CO2, 37° C. environment. The cells were harvested by centrifugation at 1000 rpm for 3 min, and washed with ice-cold PBS buffer to remove the remaining culture medium and prepared into a cell suspension of 1×10^7 cells/mL. The cell suspension was inoculated into the left and right armpits of BALB/c mice with 1×10^6 cells/mouse for subsequent inoculation. When the tumor volume increased to about […], the tumor was removed and homogenized at 3.5 mL of ice-old saline/g to obtain tumor tissue suspension. The mice to be inoculated were grouped according to their body weight, and the cell suspension was inoculated into the left armpit of BALB/c mice at the amount of 100 μL/mouse. The administration of the drug was started the day after inoculation. Compound 4 was first dissolved in DMSO and then mixed with pre-warmed PBS solution (37° C.) to form a homogeneous and stable solution at a final concentration of 1 mg/mL (3% DMSO+2% anhydrous ethanol+1% polyoxyethylene castor oil). The dose was 5 mg/kg and the route of administration was oral gavage (i.g). The body weight, body temperature, tumor size and food intake of the mice were monitored daily. The mice in the model group were considered to be in the advanced stage of cachexia when they were about 10% weight loss after 16 days. The muscle grip of mice's limbs was measured, and samples of gastrocnemius muscle, epididymal fat and tumor were obtained after the mice were executed by […] and the tissue samples were weighed.
The measurement method of the muscle grasping force is as follows: The researcher holds the mouse steadily with his right hand, puts the mouse on the “YLS-13A rat and mouse grasping force measuring instrument” to let the forelimbs of mouse firmly grasp the grasping plate and uses his left hand to stabilize the grasping plate. To measure the muscle grasping force of the mouse, the researcher slowly releases his left hand from the grasping plate and immediately uses his right hand to pull the mouse's tail backward slowly until the forelimbs are free from the grasping plate. Each mouse is repeated 8 times, and the average value of the 8 times is used as the skeletal muscle strength index of each mouse.
Results and Conclusions: Referring to FIGS. 48 to 58, the three curves in the figures represent the healthy group, the C26 tumor model group and the dosing group (compound 4 group, where compound 4 was administrated at a dose of 5 mg/kg), respectively.

The mark [1] stands for this setting: vs C26 tumor model group, p<0.05.

On to `CCCCCCCCCCCCSSC(=S)N1CCCC1` [Compound 4], for which the “cancer cachexia symptoms (weight loss, muscle atrophy, fat loss, body temperature decrease)” value is “alleviate the weight loss, muscle atrophy, fat degradation and body temperature decrease”. Further, under “end of experiment, p<0.01”, the “body weight with tumor vs C26 tumor model group” value was “higher than those in the C26 tumor model group” and the “body weight without tumor vs C26 tumor model group” value was “higher than those in the C26 tumor model group”. Further, under “vs C26 tumor model group”, the food intake entry is “higher food intake than the C26 tumor model group” and the “tumor volume / growth of C26 tumors” value is on record as “no significant inhibitory effect”. Moreover, under setting [1], the epididymal fat mass result is “significantly increase the epididymal fat mass”, the gastrocnemius muscle mass result is listed as “significantly alleviate gastrocnemius muscle atrophy” and the muscle grasping force entry is given as “significantly enhance the muscle grasping force”.
